Experimental data reported in ChEMBL document CHEMBL1201862, “PubChem BioAssay data set” (2004).
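Five compound concentrations were applied to cells in 96-well plates for 48 hours; endpoints were derived by simple linear interpolation of the resulting dose-response curve. The concentration for 50% growth inhibition is given as GI50.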 Calls of active or inactive are those of the source. Rule as the data show it: active = GI50 up to about 1.1 µM and inactive = higher.

Columns and labels:
Assay in all cases: NCI tumour cell line growth inhibition, 48 h
[1] = test system: A498
[2] = test system: ACHN
[3] = test system: CAKI-1
[4] = test system: IGROV-1
[5] = test system: UO-31
[6] = test system: U-251
[7] = test system: HL-60
[8] = test system: A549
[9] = test system: NCI-H522
[10] = test system: UACC-62
[11] = test system: HCC 2998
[12] = test system: Malme-3M
[13] = test system: EKVX
[14] = test system: HT-29
[15] = test system: M19-MEL

Measured: GI50

CN(C)c1ccc(/C=C2\N=C(c3ccc(N)cc3)OC2=O)cc1
inactive: [1] > 100 µM | [2] > 100 µM | [3] > 100 µM | [4] > 100 µM | [5] > 100 µM | [6] > 100 µM | [7] > 100 µM | [8] > 100 µM | [9] > 100 µM | [10] > 100 µM | [11] > 100 µM | [12] > 100 µM | [13] > 100 µM | [14] > 100 µM | [15] > 100 µM

COC(=O)C(CC(=O)c1ccccc1)c1ccccc1NC(C)=O (stereo not drawn)
inactive: [1] > 100 µM | [2] > 100 µM | [3] > 100 µM | [4] > 100 µM | [5] 29.9 µM | [6] > 100 µM | [7] > 100 µM | [8] > 100 µM | [9] > 100 µM | [10] > 100 µM | [11] > 100 µM | [12] > 100 µM | [13] > 100 µM | [14] > 100 µM | [15] > 100 µM

COc1ccc2nc(C(=O)c3ccccc3)c(C)cc2c1
inactive: [1] 2.74 µM | [2] 10 µM | [3] 7.91 µM | [4] > 29.2 µM | [5] 12.9 µM | [6] 3.5 µM | [7] 3.38 µM | [8] 6.28 µM | [9] 1.88 µM | [10] 5.26 µM | [11] 6.01 µM | [12] 2.94 µM | [13] 5.26 µM | [14] 3.59 µM | [15] 7.82 µM

N#CC(C(=O)CCC(=O)Nc1ccc(Cl)cc1)c1ccccc1Cl (stereo not drawn)
inactive: [1] > 100 µM | [2] 54.8 µM | [3] 89.3 µM | [4] > 100 µM | [5] > 100 µM | [6] > 100 µM | [7] > 100 µM | [8] > 100 µM | [9] > 100 µM | [10] 16 µM | [12] > 100 µM | [13] > 100 µM | [15] > 100 µM

CCOc1ccccc1NC(=O)CC(C(=O)OC)C(=O)C(=O)OC (stereo not drawn)
inactive: [1] > 100 µM | [2] > 100 µM | [3] > 100 µM | [4] > 100 µM | [5] > 100 µM | [6] > 100 µM | [7] > 100 µM | [8] > 100 µM | [9] > 100 µM | [10] > 100 µM | [11] > 100 µM | [12] > 100 µM | [13] > 100 µM | [14] > 100 µM | [15] > 100 µM

CCOC(=O)CNC(=O)c1nc[nH]c1/N=N/N(C)C
inactive: [1] > 100 µM | [2] > 100 µM | [3] > 100 µM | [4] > 100 µM | [5] > 100 µM | [6] > 100 µM | [7] > 100 µM | [8] > 100 µM | [9] > 100 µM | [10] > 100 µM | [11] > 100 µM | [12] > 100 µM | [13] > 100 µM | [14] > 100 µM | [15] > 100 µM

C(=C\c1cc(CCc2nc3ccccc3[nH]2)n[nH]1)/c1ccccc1
inactive: [1] > 100 µM | [2] > 100 µM | [3] > 100 µM | [4] > 100 µM | [5] > 100 µM | [6] > 100 µM | [7] > 100 µM | [8] > 100 µM | [9] > 100 µM | [10] > 100 µM | [11] > 100 µM | [12] > 100 µM | [13] > 100 µM | [14] > 100 µM | [15] > 100 µM

COc1cc2c(cc1OC)C1[C@@H](c3ccccc3)OCN1CC2 (stereo partly drawn)
inactive: [1] > 100 µM | [2] > 100 µM | [3] > 100 µM | [4] > 100 µM | [5] > 100 µM | [6] > 100 µM | [7] 54.5 µM | [8] > 100 µM | [9] > 100 µM | [10] > 100 µM | [11] > 100 µM | [12] > 100 µM | [13] > 100 µM | [14] > 100 µM | [15] > 100 µM

COc1ccc(N2C(=O)C3c4[nH]c5ccccc5c4C4CCCCC4C3C2=O)cc1 (stereo not drawn)
inactive: [1] 24.6 µM | [2] 22.5 µM | [3] 51.3 µM | [4] 24.7 µM | [5] 26.4 µM | [6] 15.6 µM | [7] 16.2 µM | [8] 18.3 µM | [9] 18 µM | [10] 10.3 µM | [11] 18.3 µM | [12] 5.56 µM | [13] 17.3 µM | [14] 23.4 µM | [15] 28.8 µM

CC(=O)NNc1nc(C)c(C(=O)/C=C/c2ccc(NC(C)=O)cc2)s1
inactive: [1] > 100 µM | [2] > 100 µM | [3] > 100 µM | [4] > 100 µM | [5] > 100 µM | [6] > 100 µM | [7] > 100 µM | [8] > 100 µM | [9] > 100 µM | [10] > 100 µM | [11] > 100 µM | [12] > 100 µM | [13] 71.3 µM | [14] > 100 µM | [15] > 100 µM

COc1ccc(OC)c2c(C(=O)O)c(Cc3ccccc3)ccc12
inactive: [1] > 100 µM | [2] > 100 µM | [3] > 100 µM | [4] > 100 µM | [5] > 100 µM | [6] > 100 µM | [7] > 100 µM | [8] > 100 µM | [9] > 100 µM | [10] > 100 µM | [11] > 100 µM | [12] > 100 µM | [13] > 100 µM | [14] > 100 µM | [15] > 100 µM

O=S(=O)(SCc1ccccc1)C(c1ccccc1)c1ccccc1
inactive: [1] 29.6 µM | [2] 37.8 µM | [3] 31 µM | [4] 32.7 µM | [5] 64.6 µM | [6] 32.9 µM | [7] 5.52 µM | [8] 32 µM | [9] 26.6 µM | [10] 27.5 µM | [11] > 100 µM | [12] 36.1 µM | [13] 60.3 µM | [14] 28.6 µM | [15] 32.4 µM

COc1nc2c(nc(N)n2C2OC(CO)C(O)C(O)C2O)c(=O)[nH]1 (stereo not drawn)
inactive: [1] > 100 µM | [2] > 100 µM | [3] > 100 µM | [4] > 100 µM | [5] > 100 µM | [6] > 100 µM | [7] > 100 µM | [8] > 100 µM | [9] > 100 µM | [10] > 100 µM | [11] > 100 µM | [12] > 100 µM | [13] > 100 µM | [14] > 100 µM | [15] > 100 µM
